# Results from the COVID Moonshot data (paper PMC7615835).
# pIC50: −log10 of the molar value. Several values for one entry are separate records, joined by “and”; a condition that tells them apart may be missing. Identical values can stand only once.
# Target: SARS-CoV-2 Main Protease (SARS-CoV-2) (UniProt P0DTD1)
row,Compound,pIC50
1,O=C(Cc1cccc(Cl)c1)Nc1cncc2[nH]ncc12,4.66
2,COc1ccccc1CC(=O)Nc1cncc2ccccc12,4.46
3,O=C1CCCN(S(=O)(=O)c2cccs2)CC1,< 4.00
4,N#Cc1cc(Cl)cc(NC(=O)Nc2cccnc2)c1,< 4.00
5,COC(=O)c1c(C)n(S(C)(=O)=O)c2ccc(N(C(=O)c3ccco3)S(C)(=O)=O)cc12,6.03
6,O=C(Cc1cccc(Cl)c1)Nc1[nH]nc2cc(F)ccc12,< 4.00
7,Cc1noc(COc2cc(Cl)cc(CC(=O)Nc3cnccc3C)c2)n1,4.62
8,Cc1nc2cc(NC(=O)Cn3cnc4c(cnn4C)c3=O)ccc2o1,< 4.00
9,Cc1nn(C)c2[nH]nc(NC(=O)Cc3cccc(Cl)c3)c12,< 4.00
10,Cc1ccc(S(=O)(=O)N2CCN(C(=O)c3cc(=O)[nH]c4cc(F)ccc34)CC2)c(C)c1,< 4.00
11,O=[N+]([O-])c1cnc(Sc2nnc(-c3ccco3)n2-c2ccc(OCc3ccccc3)cc2)s1,5.14
12,COc1ccc2c(NC(=O)C3CCOc4ccc(Cl)cc43)noc2c1 (stereo not given),4.21
13,CN1CCN(c2ccc(Nc3cc(Cl)cc(CC(=O)Nc4cncc5ccccc45)c3)cc2F)CC1,5.55
14,Cc1nccn1Cc1ccc2c(NC(=O)C3CCOc4ccc(Cl)cc43)cncc2c1 (stereo not given),5.27
15,O=C(Cc1cc(Cl)cc(Nc2nc3c(Cl)cccc3s2)c1)Nc1cncc2ccccc12,5.68
16,CC(C)(C)c1ccc(N(C(=O)c2nc3c(s2)CCC3)C(C(=O)NCCc2cccc(F)c2)c2cccnc2)cc1 (stereo not given),< 4.00
17,CC(=O)N(CC(=O)Nc1ccc(F)c(Cl)c1)c1cccc(C#N)c1,< 4.00
18,CN(C)C(C(=O)Nc1cncc2ccccc12)c1ccc(Cl)c(Cl)c1 (stereo not given),5.37
19,Clc1scc(CN2CCC(c3ccn[nH]3)CC2)c1Cl,< 4.00
20,CC(C)(C)c1ccc(N(C(=O)c2[nH]nc(O)c2CCO)C(C(=O)NCCc2cccc(F)c2)c2cccnc2)cc1 (stereo not given),< 4.00
21,NS(=O)(=O)c1cc(CN2CCN(C(c3ccccc3)c3ccccc3)CC2)co1,< 4.00
22,O=C(Cc1cccc(Cl)c1)Nc1cncc2c1CCCC2,< 4.00
23,N#Cc1cc(N(C(=O)c2ccco2)C(C(=O)NCCc2cccc(F)c2)c2cccnc2)ccc1Oc1ccc(C(F)(F)F)cc1 (stereo not given),< 4.00
24,CCNC(=O)CN1CC(C(=O)Nc2cncc3ccccc23)c2cc(Cl)ccc2C1=O (stereo not given),7.20 and 6.98 and 6.84
25,O=C(NCCO)c1ccc(N(C(=O)c2cocn2)C(C(=O)NCCc2cccc(F)c2)c2cccnc2)cc1 (stereo not given),< 4.00

row,Compound,pIC50
1,O=C(Cc1cc(Cl)cc(Nc2c(Br)cncc2[N+](=O)[O-])c1)Nc1cncc2ccccc12,5.74
2,O=C1NCC(C(=O)Nc2cnn3c2CCCC3)c2cc(Cl)ccc21 (stereo not given),4.52
3,O=C(CCl)N1CCN(Cc2cc(Cl)cc(Cl)c2)CC1,5.72
4,NC(=O)c1ccc2c(NC(=O)Cc3cccc(Cl)c3)cncc2c1,5.80
5,O=C(Cc1cc(Cl)cc(Nc2c(F)cc(F)cc2Cl)c1)Nc1cncc2ccccc12,5.69
6,C=CC(=O)N(c1ccc(C(C)(C)C)cc1)C(C(=O)NCCc1cccc(F)c1)c1cncc(C)c1 (stereo not given),4.94
7,Cc1[nH]c2ccccc2c1C(=O)CSc1nc2cc(Cl)cnc2[nH]1,< 4.00
8,COc1cccc(C(NC(=O)Cc2cccc(Cl)c2)c2nc3ccccc3[nH]2)c1 (stereo not given),< 4.00
9,COc1ccccc1OCCNC(=O)C1CC(=O)Nc2ccccc21 (stereo not given),< 4.00
10,O=C(Cc1cc(Cl)cc(Nc2ccc(F)c(Br)c2)c1)Nc1cncc2ccccc12,5.71
11,O=C1NC(c2ccc(Cl)c(Cl)c2)C(=O)N1c1cncc2ccccc12 (stereo not given),5.07
12,CN1C(=O)c2ccc(Nc3cc(Cl)cc(CC(=O)Nc4cncc5ccccc45)c3)cc2C1=O,5.78
13,CC(C)(C)OC(=O)N1CC(NC(=O)C(c2cccnc2)N(C(=O)c2cocn2)c2ccc(C(C)(C)C)cc2)C1 (stereo not given),5.16
14,N#Cc1cccc(CN2CCN(C(=O)CCl)CC2)c1,4.71
15,O=C(NCCc1cccc(F)c1)C(c1cccnc1)N(C(=O)c1cnc[nH]1)c1ccc(Cn2cccn2)cc1 (stereo not given),4.45
16,CC(C)(C)c1ccc(N(C(=O)c2ccco2)C(C(=O)N2CCOCC2)c2cccnc2)cc1 (stereo not given),4.39
17,COc1cc(COc2cc(Cl)cc(CC(=O)Nc3cnccc3C)c2)ccc1OC(F)F,< 4.00
18,CCOC1CC2(C1)CC2N(C(=O)c1ccco1)C(C(=O)NCCc1cccc(F)c1)c1cccnc1 (stereo not given),< 4.00
19,O=C(Cc1cccc(Cl)c1)Nc1cncc2ccc(OCC(F)(F)F)cc12,5.96
20,O=C(NCC1(C(=O)Nc2cncc3ccccc23)CCOc2ccc(Cl)cc21)C1COCCN1CC(F)(F)F (stereo not given),4.77 and 4.57
21,O=C(Cc1cc(Cl)cc(NCCc2ccccc2C(F)(F)F)c1)Nc1cncc2ccccc12,5.53
22,Cc1cc(C(F)(F)F)nc2c1c(N)nn2C(=O)C1CCOc2ccc(Cl)cc21 (stereo not given),< 4.00
23,O=C(Cc1cccc(Cl)c1)Nc1n[nH]c2ccc(F)cc12,< 4.00
24,Cc1ccnnc1NC(=O)Cc1cccc(Cl)c1,< 4.00
25,CCOC(=O)N1Cc2ccc(Cl)cc2C(C(=O)Nc2cncc3ccccc23)C1 (stereo not given),6.63
